# Source: patent publication US12304905B2, “Pharmaceutical salts of benzothiazol compounds, polymorphs and methods for preparation thereof” (priority 2019, dated 2025)
# What was measured:
# Type in all cases: physicochemical
# [1] = Dry grinding and wet granulation, physical stability in the milling process
# Procedure: Dry grinding and wet granulation were carried out to test physical stability of (1S,2S)-2-fluoro-N-(6-(4-methylpyridin-3-yl)benzo[d]thiazol-2-yl)cyclopropane-1-carboxamide mono-hydrochloride in the milling process.
# (§1) For dry grinding experiment, about 50 mg of (1S,2S)-2-fluoro-N-(6-(4-methylpyridin-3-yl)benzo[d]thiazol-2-yl)cyclopropane-1-carboxamide mono-hydrochloride was added into mortar and grinded by pestle for about 5 mins. Residual solids were then characterized by XRPD.
# as §1, with “wet granulation” for “dry grinding”, “and then several drops of solvent EtOH were added until the solids were fully wetted. Wet solids were” for “and”, “mins manually and residual” for “mins. Residual”
# [2] = Polymorph screening study of mono-hydrochloride (slurry, heating-cooling, slow evaporation, anti-solvent); settings: slow evaporation and anti-solvent methods, starting from Pattern I
# Procedure: About 50 mg of (1S,2S)-2-fluoro-N-(6-(4-methylpyridin-3-yl)benzo[d]thiazol-2-yl)cyclopropane-1-carboxamide mono-hydrochloride was suspended into 1.0 mL selected pure or binary solvents in 2.0 mL glass vials. The suspensions were placed on the thermo-mixer with the speed of 700 r/m in at 25° C. and 50° C. After 4 days, slurries and suspensions were centrifuged (8,000 r/m in, 5 mins) and residual solids were dried in the vacuum oven at 35° C. for 4 hrs.
# About 50 mg of (1S,2S)-2-fluoro-N-(6-(4-methylpyridin-3-yl)benzo[d]thiazol-2-yl)cyclopropane-1-carboxamide mono-hydrochloride was suspended into 1.0 mL selected pure or binary solvents in 2.0 mL glass vials at 50° C. stirring with the speed of 500 r/min. Then the suspensions were filtered through 0.45 μm filters into clean 2.0 mL glass vials and placed on the hot-plate stirring with 500 r/m in at 50° C. After stirring at 50° C. for 1.5 hrs, the system was cooled to 25° C. After stirring at 25° C. for 16 hrs, some solids came out from MeOH, EtOH/H2O (5/1, v/v) and acetone/H2O (5/1, v/v) systems, while very few solids came out from EtOH system. Then MeOH, EtOH/H2O (5/1, v/v) and acetone/H2O (5/1, v/v) systems were centrifuged at 10000 r/min for 5 mins and residual solids were dried in the vacuum oven at 35° C. for 3 hrs. Obtained dry solids were then characterized by XRPD. […]
# [3] = Solubility of mono-hydrochloride in solvents; settings: in MeOH, DMF, DMSO and water
# [4] = Solubility tests of mono- and di-hydrochloride in bio-relevant media by HPLC; settings: for solubility at 17 h: 37 °C, thermodynamic from solid; for pH: after shaking 17 hrs at 37° C.
# Procedure: Solubilities of mono-hydrochloride and di-hydrochloride salt forms in biorelevant media were tested at 37° C. Details of procedures were listed as below: About 15 mg obtained salts were weighed in 2 mL vials, respectively. Then 1.0 mL bio-relevant media (SGF, FaSSIF and FeSSIF) were added into the vials. All the vials were placed on the thermo-mixer and kept at 37° C. (700 r/min). After shaking at 37° C. for 17 hrs, clear solutions obtained by centrifugation were analyzed by HPLC after being diluted by ACN/water (1v/1v) for 10-50 times. And pH value of all systems were measured.
smiles,measurement,setting,value
"Cc1ccncc1-c1ccc2nc(NC(=O)[C@@H]3C[C@@H]3F)sc2c1.Cl [Mono-hydrochloride, (1S,2S)-2-fluoro-N-(6-(4-methylpyridin-3-yl)benzo[d]thiazol-2-yl)cyclopropane-1-carboxamide mono-hydrochloride]",crystallinity of residual solids (XRPD),[1]; after dry grinding,decreased
same,crystalline form (XRPD),[1]; after dry grinding or wet granulation process,not changed
same,XRPD pattern in polymorph screening,[2],No new XRPD pattern was found
same,solubility,[3],relatively high solubility
same,solubility at 17 h,"[4]; pH 1.88, simulated gastric fluid",> 13900 µg/mL
same,solubility at 17 h,"[4]; pH 5.07, fessif",130 µg/mL
same,solubility at 17 h,"[4]; pH 6.62, fassif",7840 µg/mL
same,pH,[4]; FaSSIF (pH = 6.62),2.01
same,pH,[4]; FeSSIF (pH = 5.07),3.83
same,pH,[4]; SGF (pH = 1.88),1.89
